From ChEMBL document CHEMBL4842348 (J Med Chem, 2021)

What was measured:
[1] = Half life in lean wild type mouse liver at 10 mg/kg, po qd treated for 40 days; format: ADME, organism-based; conditions: time 40 day
[2] = Oral bioavailability in high fat diet fed dog at 1 mg/kg in Imwitor/Tween; format: ADME, organism-based, Canis lupus familiaris; conditions: in vivo
[3] = Oral bioavailability in fasted dog at 1 mg/kg in Imwitor/Tween; format: ADME, organism-based, Canis lupus familiaris; conditions: in vivo
[4] = Volume of distribution at steady state in Beagle dog at 0.5 mg/kg, iv; format: ADME, organism-based, Canis lupus familiaris; conditions: in vivo, read-out: Vdss
[5] = Terminal half life in CD1 mouse at 1 mg/kg, iv; format: ADME, organism-based; conditions: in vivo, read-out: beta t1/2 (converted)
[6] = Volume of distribution at steady state in CD1 mouse at 1 mg/kg, iv and 2 mg/kg, po; format: ADME, organism-based; conditions: in vivo, read-out: Vdss
[7] = Plasma clearance in rhesus monkey at 0.5 mg/kg, iv; format: ADME, organism-based, Macaca mulatta
[8] = Drug recovery in bile duct cannulated single po dosed rhesus monkey assessed as recovered parent compound in plasma measured at 2 hrs relative to total recovery; format: ADME, organism-based, Macaca mulatta; conditions: in vivo
[9] = Drug recovery in bile duct cannulated single po dosed WH rat assessed as recovered parent compound in bile relative to total recovery; format: ADME, organism-based; conditions: in vivo
[10] = Dose normalized AUC in CD1 mouse at 1 mg/kg, iv and 2 mg/kg, po; format: ADME, organism-based; conditions: in vivo
[11] = Drug recovery in bile duct cannulated single po dosed WH rat assessed as recovered parent compound in feces relative to total recovery; format: ADME, organism-based; conditions: in vivo
[12] = Oral bioavailability in high fat diet fed dog at 1 mg/kg in 0.5% methocel; format: ADME, organism-based, Canis lupus familiaris; conditions: in vivo
[13] = Terminal half life in DIO NFR-transgenic mouse plasma at 10 mg/kg, po once daily for 14 days; format: ADME, organism-based; conditions: time 14 day, read-out: beta t1/2 (converted)
[14] = Drug recovery in bile duct cannulated single iv dosed WH rat assessed as recovered total feces radioactivity; format: ADME, organism-based; conditions: in vivo
[15] = MRT in Beagle dog at 0.5 mg/kg, iv; format: ADME, organism-based, Canis lupus familiaris; conditions: in vivo
[16] = Terminal half life in Beagle dog at 0.5 mg/kg, iv; format: ADME, organism-based, Canis lupus familiaris; conditions: in vivo, read-out: beta t1/2 (converted)
[17] = Drug recovery in bile duct cannulated single po dosed WH rat assessed as recovered total feces radioactivity; format: ADME, organism-based; conditions: in vivo
[18] = Drug recovery in bile duct cannulated single iv dosed WH rat assessed as recovered glucuronide conjugate in plasma measure at 2 hrs relative to total recovery; format: ADME, organism-based; conditions: in vivo
[19] = Clearance in CD1 mouse at 1 mg/kg, iv and 2 mg/kg, po; format: ADME, organism-based; conditions: in vivo
[20] = Terminal half life in rhesus monkey at 0.5 mg/kg, iv; format: ADME, organism-based, Macaca mulatta; conditions: in vivo, read-out: beta t1/2 (converted)
[21] = Drug recovery in bile duct cannulated single po dosed rhesus monkey assessed as recovered parent compound in urine relative to total recovery; format: ADME, organism-based, Macaca mulatta; conditions: in vivo
[22] = Plasma clearance in Beagle dog at 0.5 mg/kg, iv; format: ADME, organism-based, Canis lupus familiaris
[23] = Cmax in rhesus monkey at 2 mg/kg, po; format: ADME, organism-based, Macaca mulatta; parameters: route oral, dose 2 mg/kg; conditions: in vivo
[24] = Half life in NFR-transgenic mouse plasma at 10 mg/kg, po single dose; format: ADME, organism-based
[25] = Normalized AUC (0 to 72 hrs) in high fat diet fed dog at 1 mg/kg, po in Imwitor/Tween; format: ADME, organism-based, Canis lupus familiaris; conditions: in vivo
[26] = Tmax in WH rat at 2 mg/kg, po; format: ADME, organism-based; conditions: in vivo
[27] = Drug recovery in bile duct cannulated single po dosed rhesus monkey assessed as recovered taurine conjugate in bile relative to total recovery; format: ADME, organism-based, Macaca mulatta; conditions: in vivo
[28] = Bioavailability in CD1 mouse at 1 mg/kg, iv and 2 mg/kg, po; format: ADME, organism-based; conditions: in vivo
[29] = Drug recovery in bile duct cannulated single po dosed rhesus monkey assessed as recovered parent compound in feces relative to total recovery; format: ADME, organism-based, Macaca mulatta; conditions: in vivo
[30] = MRT in WH rat at 1 mg/kg, iv; format: ADME, organism-based; conditions: in vivo
[31] = AUC (0 to infinitive) in WH rat at 2 mg/kg, po; format: ADME, organism-based; parameters: route oral, time infinity, dose 2 mg/kg; conditions: in vivo
[32] = Drug recovery in bile duct cannulated single po dosed WH rat assessed as recovered taurine conjugate in bile relative to total recovery; format: ADME, organism-based; conditions: in vivo
[33] = Oral bioavailability in CD1 mouse at 2 mg/kg; format: ADME, organism-based; conditions: in vivo
[34] = Cmax in high fat diet fed dog at 1 mg/kg, po in 0.5% methocel; format: ADME, organism-based, Canis lupus familiaris; parameters: route oral, dose 1 mg/kg; conditions: in vivo
[35] = Oral bioavailability in fasted dog at 1 mg/kg in 0.5% methocel; format: ADME, organism-based, Canis lupus familiaris; conditions: in vivo
[36] = Terminal half life in DIO NFR-transgenic mouse adipose tissue at 10 mg/kg, po once daily for 14 days; format: ADME, organism-based; conditions: time 14 day, read-out: beta t1/2 (converted)
[37] = Drug recovery in bile duct cannulated single po dosed rhesus monkey assessed as recovered total feces radioactivity; format: ADME, organism-based, Macaca mulatta; conditions: in vivo
[38] = Drug recovery in bile duct cannulated single po dosed rhesus monkey assessed as recovered parent compound in bile relative to total recovery; format: ADME, organism-based, Macaca mulatta; conditions: in vivo
[39] = Cmax in fasted dog at 1 mg/kg, po in 0.5% methocel; format: ADME, organism-based, Canis lupus familiaris; parameters: route oral, dose 1 mg/kg; conditions: in vivo
[40] = Normalized AUC (0 to 72 hrs) in fasted dog at 1 mg/kg, po in 0.5% methocel; format: ADME, organism-based, Canis lupus familiaris; conditions: in vivo
[41] = Terminal half life in DIO NFR-transgenic mouse liver at 10 mg/kg, po once daily for 14 days; format: ADME, organism-based; conditions: time 14 day, read-out: beta t1/2 (converted)
[42] = Drug recovery in bile duct cannulated single po dosed rhesus monkey assessed as recovered total urine radioactivity; format: ADME, organism-based, Macaca mulatta; conditions: in vivo
[43] = Normalized AUC (0 to 72 hrs) in fasted dog at 1 mg/kg, po in Imwitor/Tween; format: ADME, organism-based, Canis lupus familiaris; conditions: in vivo
[44] = MRT in CD1 mouse at 1 mg/kg, iv and 2 mg/kg, po; format: ADME, organism-based; conditions: in vivo
[45] = Tmax in Beagle dog at 2 mg/kg, po; format: ADME, organism-based, Canis lupus familiaris; conditions: in vivo
[46] = AUC (0 to infinitive) in Beagle dog at 2 mg/kg, po; format: ADME, organism-based, Canis lupus familiaris; parameters: route oral, time infinity, dose 2 mg/kg; conditions: in vivo
[47] = Drug recovery in bile duct cannulated single iv dosed WH rat assessed as recovered parent compound in plasma measure at 2 hrs relative to total recovery; format: ADME, organism-based; conditions: in vivo
[48] = Volume of distribution at steady state in rhesus monkey at 0.5 mg/kg, iv; format: ADME, organism-based, Macaca mulatta; conditions: in vivo, read-out: Vdss
[49] = Half life in lean wild type mouse adipose tissue at 10 mg/kg, po qd treated for 40 days; format: ADME, organism-based; conditions: time 40 day
[50] = Volume of distribution at steady state in WH rat at 1 mg/kg, iv; format: ADME, organism-based; conditions: in vivo, read-out: Vdss
[51] = Half life in DIO wild type mouse plasma at 10 mg/kg, po qd treated for 40 days; format: ADME, organism-based; conditions: time 40 day
[52] = Plasma clearance in WH rat at 1 mg/kg, iv; format: ADME, organism-based
[53] = Drug recovery in bile duct cannulated single iv dosed WH rat assessed as recovered total bile radioactivity; format: ADME, organism-based; conditions: in vivo
[54] = Oral bioavailability in rhesus monkey at 2 mg/kg; format: ADME, organism-based, Macaca mulatta; conditions: in vivo
[55] = Cmax in Beagle dog at 2 mg/kg, po; format: ADME, organism-based, Canis lupus familiaris; parameters: route oral, dose 2 mg/kg; conditions: in vivo
[56] = Normalized AUC (0 to 72 hrs) in high fat diet fed dog at 1 mg/kg, po in 0.5% methocel; format: ADME, organism-based, Canis lupus familiaris; conditions: in vivo
[57] = Drug recovery in bile duct cannulated single po dosed WH rat assessed as recovered glucuronide conjugate in bile relative to total recovery; format: ADME, organism-based; conditions: in vivo
[58] = Drug recovery in bile duct cannulated single po dosed rhesus monkey assessed as recovered parent compound in plasma measured at 24 hrs relative to total recovery; format: ADME, organism-based, Macaca mulatta; conditions: in vivo
[59] = Drug recovery in bile duct cannulated single po dosed WH rat assessed as recovered total bile radioactivity; format: ADME, organism-based; conditions: in vivo

With `COc1ncc(-c2ccc(C(=O)O)cc2C)cc1-c1ccc(C(F)(F)F)cc1[C@@H]1CC[C@H]2[C@@H](c3cc(C(F)(F)F)cc(C(F)(F)F)c3)OC(=O)N12` the half-life [1] was 90 min, the bioavailability [2] was 48% and the bioavailability [3] was 53%. The Vd [4] was 0.54 L/kg, the half-life [5] was 264 min and the Vd [6] was 0.95 L/kg. For the same molecule, the clearance [7] was 0.39 mL/min/kg, the Drug recovery [8] was over 99% and the Drug recovery [9] was under 2%. The AUC/dose [10] was 9.2 µM·h, the Drug recovery [11] was over 98% and the bioavailability [12] was 9%. The half-life at […] [13] was 228 min, the Drug recovery [14] was 15% and the MRT [15] was 18 h. The half-life [16] was 900 min, the Drug recovery [17] was 46% and the Drug recovery [18] was under 4%. For the same molecule, the clearance [19] was 2.6 mL/min/kg, the half-life [20] was 3000 min and the Drug recovery [21] was over 99%. The clearance [22] was 0.52 mL/min/kg, the Cmax [23] was 220 nM and the half-life [24] was 720 min. For the same molecule, the AUC/dose [25] was 22 µM·kg·h/mg, the Tmax [26] was 4 h and the Drug recovery [27] was 3%. It also gave a bioavailability [28] of 43%, a Drug recovery [29] of 95% and an MRT [30] of 13 h. The AUC(0-inf) [31] was 9.7 µM·h, the Drug recovery [32] was 0% and the bioavailability [33] was 43%. The Cmax [34] was 300 nM, the bioavailability [35] was 14% and the half-life at […] [36] was 168 min. It also gave a Drug recovery [37] of 60%, a Drug recovery [38] of under 1% and a Cmax [39] of 500 nM. For the same molecule, the AUC/dose [40] was 6.5 µM·kg·h/mg, the half-life at […] [41] was 330 min and the Drug recovery [42] was 7%. It also gave an AUC/dose [43] of 24 µM·kg·h/mg, an MRT [44] of 6 h and a Tmax [45] of 1.7 h. The AUC(0-inf) [46] was 13 µM·h, the Drug recovery [47] was over 96% and the Vd [48] was 1.3 L/kg. The half-life [49] was 48 min, the Vd [50] was 2.4 L/kg and the half-life [51] was 2.8 days. It also gave a clearance [52] of 3.1 mL/min/kg, a Drug recovery [53] of 67% and a bioavailability [54] of 8.4%. It also gave a Cmax [55] of 690 nM, an AUC/dose [56] of 4.2 µM·kg·h/mg and a Drug recovery [57] of over 98%. The Drug recovery [58] was over 99% and the Drug recovery [59] was over 99%.
